According to US10155948B2, “Pharmaceutical composition for preventing or treating diabetic complications and screening method for preventive or therapeutic agent for diabetic complications” (KANGWON NATIONAL UNIVERSITY UNIVERSITY-INDUSTRY COOPERATION …, priority 2016, dated 2018):

target: T1, TGase2 (Homo sapiens, UniProt P21980); assay: In-situ TGase activity by confocal microscopy in VEGF-treated HRECs; type: cell-based; parameters: endogenous in cells; host or cells: human retinal endothelial cells (HRECs); settings: 10 ng/ml VEGF 2 hrs, 50 μM cystamine, 20 μM MDC, 5 μM BAPTA-AM, 1 mM NAC, 0.5 μM Trolox, p<0.001
T1 sequence (P21980 1-687): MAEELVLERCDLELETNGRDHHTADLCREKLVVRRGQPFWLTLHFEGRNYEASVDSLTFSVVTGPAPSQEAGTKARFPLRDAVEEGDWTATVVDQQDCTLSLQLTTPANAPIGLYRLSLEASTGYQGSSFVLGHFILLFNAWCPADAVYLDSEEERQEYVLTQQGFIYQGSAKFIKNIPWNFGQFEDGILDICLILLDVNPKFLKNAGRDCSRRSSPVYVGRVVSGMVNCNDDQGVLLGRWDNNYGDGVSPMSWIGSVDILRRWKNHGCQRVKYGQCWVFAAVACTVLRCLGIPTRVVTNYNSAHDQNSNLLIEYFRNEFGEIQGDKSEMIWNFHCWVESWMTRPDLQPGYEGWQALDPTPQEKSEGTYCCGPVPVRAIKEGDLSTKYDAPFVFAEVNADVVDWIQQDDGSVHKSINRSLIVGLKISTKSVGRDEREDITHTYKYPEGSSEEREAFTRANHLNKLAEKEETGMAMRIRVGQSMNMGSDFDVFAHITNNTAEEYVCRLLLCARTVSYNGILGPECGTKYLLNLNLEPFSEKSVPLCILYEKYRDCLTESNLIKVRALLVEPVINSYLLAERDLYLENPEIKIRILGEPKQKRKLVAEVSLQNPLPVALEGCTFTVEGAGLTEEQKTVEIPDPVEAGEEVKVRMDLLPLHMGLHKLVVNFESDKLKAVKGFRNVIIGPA
Description: HUVEC isolation was done by our own supply and Human retinal endothelial cells (HRECs) were purchased from the Applied Cell Biology Research Institute (Cell Systems, Kirkland, Wash.). Both respectively were grown on 2% gelatin-coated plates in a M199 medium supplemented with 20% fetal bovine serum (FBS), 3 ng/ml basic fibroblastic growth factor, 5 units/ml heparin, 100 units/ml penicillin, and 100 μg/ml streptomycin. For experiments, cells were incubated for 6 hrs in a low-serum medium supplemented with 1% FBS and antibiotics.
In-situ Tgase transamidating activity was determined via confocal microscopic assay according to a previously known procedure. In brief, cells were incubated with 1 mM 5-(biotinamido)pentylamine (BAPA) for 1 hr at 37° C., fixed with 3.7% formaldehyde in PBS for 30 min, and permeabilized with 0.2% Triton X-100 in PBS for 30 min. After incubation with a blocking solution of 2% BSA in 20 mM Tris (pH 7.6), 138 mM NaCl, and 0.1% Tween 20 for 30 min, cells were treated with Cy3-conjugated streptavidin (1:200, v/v) in the blocking solution for 1 hr. Single-cell fluorescence intensities of stained cells were determined using confocal microscopy for 10 randomly selected cells per test. TGase activities were determined by comparing average fluorescence intensities of treated cells with those of control cells (expressed as multiples thereof).
HRECs were transfected with human TGase2-specific siRNA as described previously. In brief, cells were transfected with various concentrations of human TGase2-siRNA or 100 nM control siRNA (Dharmacon, Lafayette, Colo.) using siLentFect lipid reagent (Bio-Rad Laboratories, Hercules, Calif.) according to the manufacturer's instructions. Six hours after transfection with the indicated concentrations, the medium was replaced with a fresh culture medium and the transfected cells were further incubated for 24 hrs.
A detailed description of FIGS. 1A-1F are given below. […] (A, B) HRECs were incubated with 10 ng/ml VEGF for the indicated times (A) or for 2 hrs (B) in the presence of TGase inhibitors (50 μM cystamine and 20 μM MDC), 5 μM Ca^2+ chelator BAPTA-AM, or ROS scavengers (1 mM NAC or 0.5 μM Trolox). In-situ TGase activity was determined by confocal microscopy as described in Research Design and Methods (A: Time course changes in VEGF-induced transglutaminase activation; and B: Effects of various inhibitors on VEGF-induced transglutaminase activation). (C,D) HRECs were transfected with the indicated concentrations (C) or 100 nM (D) of human TGase2-specific siRNA (TGase2 siRNA) or 100 nM control (Ctrl) siRNA. Endothelial cells were treated with 10 ng/ml VEGF and subjected to confocal microscopic determination of in-situ TGase activity (C: Dose-dependent inhibition of TGase2 expression by TGase2 siRNA, TGase2 expression being analyzed by Western blot; and D: TGase2 siRNA prevention of VEGF-induced transglutaminase activation). FIGS. 1E and 1F show the effects of various inhibitors on the elevation of intracellular Ca^2+ (E) and ROS (F). Intracellular Ca^2+ and ROS levels were determined by confocal microscopy as described in Research Design and Methods. Results are expressed as mean±SD from three independent trials (***p<0.001).

| VEGF-induced TGase activation (in-situ TGase activity) | SMILES |
| --- | --- |
| prevented | CN(C)c1cccc2c(S(=O)(=O)NCCCCCN)cccc12 [MDC, monodansylcadaverine] |
| prevented | NCCSSCCN [cystamine] |
| inhibited | Cc1c(C)c2c(c(C)c1O)CCC(C)(C(=O)O)O2 (stereo not drawn) [Trolox] |
